From patent US9763923B2, “Composition for reducing senescence of cell or subject including BRAF inhibitor and use thereof” (Samsung Electronics Co., Ltd., priority 2015, dated 2017)

How the values were obtained:
Format in all cases: cell-based
[1] = test system: senescent human dermal fibroblast (HDF) M11 cells; experiment: Relative proliferation rate of senescent cells (SYBR Green I DNA quantification); details: 5 μM, about 3 weeks, vs DMSO negative control
Experimental: (§1) In order to examine whether senescent cells proliferate in response to treatment with BRAF inhibitors, human dermal fibroblast (HDF) M11 cells taken from a child are cultured in Dulbecco's Modified Eagle's Medium (DMEM) containing a high concentration of glucose, glutamine, and pyruvate, and 10% (v/v) fetal bovine serum (FBS), and 1× penicillin/streptomycin at about 37° C. and 5% CO2 atmosphere, thereby obtaining senescent cells. As for the senescent cells, cells that are passaged 35 times and whose doubling time is about 10 days or longer are used.
The prepared senescent cells are inoculated at a density of 1000 cells/well in a 96-well plate. The BRAF inhibitor is added to the inoculated cells at a final concentration of 5 μM. SB590885, vemurafenib (PLX4032, RG7204), TAK-632, CEP-32496, GDC-0879, PLX-4720, ZM 336372, Sorafenib tosylate, Sorafenib, GW5074, Dabrafenib (GSK2118436), AZ 628, RAF265 (CHIR-265), and NVP-BHG712 are used as BRAF inhibiting drugs. Cells treated with dimethyl sulfoxide (DMSO) (Sigma-Aldrich) alone are used as a negative control group. The medium is replaced with a fresh medium containing the drug or DMSO alone once every four days. About 3 weeks after initial addition of the drug, 0.1% (w/v) SYBR Green I (Life Technologies, Cat. No. S-7563) is used to quantify DNA, and the number of cells is calculated from the DNA quantity measured.
The number of the senescent cells in the drug-treated group is compared to the number of the cells in the negative control group so as to calculate a relative proliferation rate. The relative proliferation rates of senescent cells treated with BRAF inhibitors to that of the negative control group are shown in FIG. 1.
The senescent cells prepared as described in 1 are inoculated at a density of 1000 cells/well in a 96-well plate. […]
Then, SYBR Green I (Life Technologies, Cat. No. S-7563) is used to quantify DNA in the senescent cells thus cultured, and the number of cells is calculated from the DNA quantity measured. […]

[2] = test system: senescent human dermal fibroblast (HDF) M11 cells; experiment: Lipofuscin accumulation by autofluorescence (FACS); details: 0.1 μM, about 3 weeks, vs DMSO
Experimental: as §1
(§2) As described in 1, 0.1 μM SB590885 is added to the prepared senescent cells, which are cultured in the presence of SB590885 for about 3 weeks. Cells treated with DMSO (Sigma-Adrich) alone are used as a negative control group.
As lipofuscin in senescent cells emits autofluorescence, accumulation of lipofuscin is analyzed by measuring the fluorescent radiation having a wavelength of 520 nm while irradiating the senescent cells with rays having a wavelength at about 488 nm using a FACSCaliber (Beckton Dickson). A relative autofluorescence ratio of the senescent cells cultured in the presence of SB590885 to the negative control group is calculated.
As described in 1, 0.1 μM TAK-632 is added to the prepared senescent cells, which are cultured in the presence of TAK-632 for about 3 weeks. Cells treated with DMSO (Sigma-Adrich) alone are used as a negative control group.
As described in 3(2), autofluorescence in the senescent cells is measured and a relative autofluorescence ratio of the senescent cells cultured in the presence of TAK-632 to the negative control group is calculated.
As described in 1, 0.1 μM vemurafenib is added to the prepared senescent cells, which are cultured in the presence of vemurafenib for about 3 weeks. Cells treated with DMSO (Sigma-Adrich) alone are used as a negative control group.
As described in 3.(2), autofluorescence in the senescent cells is measured and a relative autofluorescence ratio of the senescent cells cultured in the presence of vemurafenib to the negative control group is calculated.

[3] = test system: senescent human dermal fibroblast (HDF) M11 cells; experiment: Mitochondrial reactive oxygen species (MitoSOX Red); details: 0.1 μM, about 3 weeks, vs DMSO
Experimental: as §1, §2
In order to measure mitochondrial function in senescent cells, the amount of reactive oxygen species (ROS) in the prepared senescent cells is measured using a MitoSOX™ Red Mitochondrial Superoxide indicator (Life technologies). A relative ROS amount of the senescent cells cultured in the presence of SB590885 to that of the negative control group is shown in FIG. 4B. […] Accordingly, SB590885 inhibits mitochondrial damage in senescent cells.
As described in 3(2), the amount of ROS in the senescent cells is measured. A relative ROS ratio of the senescent cells cultured in the presence of TAK-632 to the negative control group is calculated.
As described in 3.(2), the amount of ROS in the senescent cells is measured. A relative ROS ratio of the senescent cells cultured in the presence of vemurafenib to the negative control group is calculated.

[4] = test system: senescent human dermal fibroblast (HDF) M11 cells; experiment: Lysosome accumulation (LysoTracker Blue DND-22, FACS); details: 0.1 μM, about 3 weeks, vs DMSO
Experimental: as §1, §2
In order to measure lysosome accumulation in senescent cells, the prepared senescent cells are stained using a LysoTracker®Blue DND-22 (Life Technologies, Cat. No. L-7525). The amount of lysosome is quantified by measuring the fluorescent radiation having a wavelength of 422 nm while irradiating the stained senescent cells with rays having a wavelength at about 373 nm using a FACSCaliber (Beckton Dickson). The amount (%) of lysosome in the cells cultured in the presence of SB590885 relative to that of the negative control group is shown in FIG. 4C.
As described in 3(2), the amount of lysosomes in senescent cells is measured and the amount (%) of lysosome in the cells cultured in the presence of TAK-632 relative to that of the negative control group is shown in FIG. 5C.
As described in 3.(2), the amount of lysosomes in senescent cells is measured and the amount (%) of lysosome in the cells cultured in the presence of vemurafenib relative to that of the negative control group is shown in FIG. 6C.

Compound	proliferation rate higher than the negative control group [1]	autofluorescence relative to negative control group [2]	decrease in lipofuscin compared to negative control group [2]	ROS relative to negative control group [3]	decrease in the amount of ROS compared to negative control group [3]	decrease in lysosome accumulation compared to negative control group [4]
CN(C)CCOc1ccc(-c2nc(-c3ccncc3)c(-c3ccc4c(c3)CC/C4=N\O)[nH]2)cc1 [SB590885]	about 30%	about 28%	70%	about 38%	about 60%	about 25%
CCCS(=O)(=O)Nc1ccc(F)c(C(=O)c2c[nH]c3ncc(-c4ccc(Cl)cc4)cc23)c1F [vemurafenib]	about 30%	–	about 60%	–	about 40%	about 40%
N#Cc1c(Oc2ccc(F)c(NC(=O)Cc3cccc(C(F)(F)F)c3)c2)ccc2nc(NC(=O)C3CC3)sc12 [TAK-632]	about 30%	–	~48%	–	~40%	~40%
